pIC50: −log10 of the molar value. Where a name gives a salt, the structure may show the parent alone.
Tests used:
[1] = target: T1, JAK2 (a.a. 828-1132) (Homo sapiens, UniProt O60674); assay: In vitro JAK kinase assay (HTRF), JAK2; type: biochemical; settings: catalytic domain, ATP 30 μM, 500 nM peptide, room temperature 1 hr
T1 construct: JAK2 (a.a. 828-1132); His tag (N); made in house; host or cells: insect cells (baculovirus)
Procedure: (§1) Compounds herein were tested for inhibitory activity of JAK targets according to the following in vitro assay described in Park et al., Analytical Biochemistry 1999, 269, 94-104. The catalytic domains of human JAK1 (a.a. 837-1142), JAK2 (a.a. 828-1132) and JAK3 (a.a. 781-1124) with an N-terminal His tag were expressed using baculovirus in insect cells and purified. The catalytic activity of JAK1, JAK2 or JAK3 was assayed by measuring the phosphorylation of a biotinylated peptide. The phosphorylated peptide was detected by homogenous time resolved fluorescence (HTRF). IC50s of compounds were measured for each kinase in the reactions that contain the enzyme, ATP and 500 nM peptide in 50 mM Tris (pH 7.8) buffer with 100 mM NaCl, 5 mM DTT, and 0.1 mg/mL (0.01%) BSA. The ATP concentration in the reactions was 90 μM for JAK1, 30 μM for JAK2 and 3 μM for JAK3. Reactions were carried out at room temperature for 1 hr and then stopped with 20 μL 45 mM EDTA, 300 nM SA-APC, 6 nM Eu-Py20 in assay buffer (Perkin Elmer, Boston, Mass.). Binding to the Europium labeled antibody took place for 40 minutes and HTRF signal was measured on a Fusion plate reader (Perkin Elmer, Boston, Mass.).

[2] = target: T2, human JAK1 (a.a. 837-1142) (Homo sapiens, UniProt P23458); assay: In vitro JAK kinase assay (HTRF), JAK1; type: biochemical; settings: catalytic domain, ATP 90 μM, 500 nM peptide, room temperature 1 hr
T2 construct: human JAK1 (a.a. 837-1142); His tag (N); made in house; host or cells: insect cells (baculovirus)
Procedure: as §1

T2 sequence (P23458 849-1154): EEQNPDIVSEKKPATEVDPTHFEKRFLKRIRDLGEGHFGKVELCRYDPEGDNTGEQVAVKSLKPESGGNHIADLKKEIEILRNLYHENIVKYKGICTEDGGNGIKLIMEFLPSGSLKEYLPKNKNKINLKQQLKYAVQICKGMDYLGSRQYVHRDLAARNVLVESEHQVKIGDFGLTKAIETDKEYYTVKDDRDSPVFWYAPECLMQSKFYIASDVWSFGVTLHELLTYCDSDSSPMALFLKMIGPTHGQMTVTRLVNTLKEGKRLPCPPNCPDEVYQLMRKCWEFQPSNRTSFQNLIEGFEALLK
T1 sequence (O60674 828-1132): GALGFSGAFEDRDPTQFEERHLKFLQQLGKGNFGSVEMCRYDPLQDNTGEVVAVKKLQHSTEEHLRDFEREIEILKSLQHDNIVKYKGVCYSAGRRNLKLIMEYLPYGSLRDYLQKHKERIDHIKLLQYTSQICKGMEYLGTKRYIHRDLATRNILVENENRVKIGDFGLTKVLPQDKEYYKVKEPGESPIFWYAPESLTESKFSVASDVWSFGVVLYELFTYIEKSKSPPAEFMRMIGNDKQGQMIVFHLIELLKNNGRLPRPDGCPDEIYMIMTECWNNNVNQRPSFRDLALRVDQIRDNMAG

| pIC50 [1] | pIC50 [2] | SMILES |
| --- | --- | --- |
| > 9.00 | > 8.70 | N#CCC(C1CCC1)n1cc(-c2ncnc3[nH]ccc23)cn1 (single isomer, unassigned) [Example 1, (R or S)-3-Cyclobutyl-3-[4-(7H-pyrrolo[2,3-d]pyrimidin-4-yl)-1H-pyrazol-1-yl]propanenitrile] |
| > 9.00 | > 8.70 | C[C@H]1C[C@H](C(CC#N)n2cc(-c3ncnc4[nH]ccc34)cn2)C1 (single isomer, unassigned) [Example 2, (3R or 3S)-3-(4-(7H-Pyrrolo[2,3-d]pyrimidin-4-yl)-1H-pyrazol-1-yl)-3-((trans)-3-methylcyclobutyl)propanenitrile phosphoric acid salt] |
| > 9.00 | > 8.70 | C[C@H]1C[C@@H](C(CC#N)n2cc(-c3ncnc4[nH]ccc34)cn2)C1 (single isomer, unassigned) [Example 3, (3R or 3S)-3-(4-(7H-Pyrrolo[2,3-d]pyrimidin-4-yl)-1H-pyrazol-1-yl)-3-((cis)-3-methylcyclobutyl)-propanenitrile phosphoric acid salt] |
